Experimental data as given in PubChem BioAssay (NCI).
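Dose response: 5 concentrations. Exposure: 48 h. Format: 96-well plates. Endpoint: linear interpolation; highest concentration if not reached. Here, GI50 denotes the concentration required for 50% inhibition of growth. The concentration for full growth arrest is given as TGI.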

Legend:
Test in all cases: NCI anticancer screen, dose series, 48 h
[1] = tested on: SK-MEL-5 melanoma
[2] = tested on: OVCAR-4 ovarian
[3] = tested on: HT29 colon
[4] = tested on: HS 578T breast
[5] = tested on: RPMI-8226 leukemia
[6] = tested on: RXF 393 renal
[7] = tested on: UO-31 renal
[8] = tested on: SF-539 CNS
[9] = tested on: LOX IMVI melanoma
[10] = tested on: K-562 leukemia
[11] = tested on: SF-295 CNS
[12] = tested on: HCC-2998 colon
[13] = tested on: HOP-62 NSCLC
[14] = tested on: CAKI-1 renal
[15] = tested on: U251 CNS
[16] = tested on: HCT-116 colon
[17] = tested on: OVCAR-5 ovarian
[18] = tested on: ACHN renal
[19] = tested on: SW-620 colon
[20] = tested on: M14 melanoma
[21] = tested on: BT-549 breast
[22] = tested on: OVCAR-8 ovarian
[23] = tested on: IGROV1 ovarian
[24] = tested on: NCI-H460 lung
[25] = tested on: MCF7 breast
[26] = tested on: T-47D breast
[27] = tested on: EKVX NSCLC
[28] = tested on: 786-0 renal
[29] = tested on: SK-OV-3 ovarian
[30] = tested on: OVCAR-3 ovarian
[31] = tested on: SNB-75 CNS
[32] = tested on: SF-268 CNS
[33] = tested on: SK-MEL-2 melanoma
[34] = tested on: HL-60(TB) leukemia
[35] = tested on: SR leukemia
[36] = tested on: MDA-MB-435
[37] = tested on: MOLT-4 leukemia
[38] = tested on: KM12 colon
[39] = tested on: PC-3 prostate
[40] = tested on: NCI-H226 lung
[41] = tested on: UACC-62 melanoma
[42] = tested on: A498 renal
[43] = tested on: SN12C renal
[44] = tested on: CCRF-CEM leukemia
[45] = tested on: HCT-15 colon
[46] = tested on: HOP-92 NSCLC
[47] = tested on: NCI-H23 lung
[48] = tested on: COLO 205 colon
[49] = tested on: TK-10 renal
[50] = tested on: DU-145 prostate
[51] = tested on: MALME-3M melanoma
[52] = tested on: MDA-MB-231 breast
[53] = tested on: SNB-19 CNS
[54] = tested on: A549 NSCLC
[55] = tested on: SK-MEL-28 melanoma
[56] = tested on: NCI-H522 lung
[57] = tested on: UACC-257 melanoma

Compound: COc1ccc2c(c1)NC(=O)CN2c1nc(C)nc2ccccc12
- GI50 [1]: 0.4 nM
- TGI [1]: 1.86 nM
- TGI [2]: > 100 µM
- GI50 [3]: 0.307 nM
- GI50 [4]: 0.601 nM
- TGI [4]: > 100 µM
- GI50 [5]: 0.603 nM
- TGI [5]: > 100 µM
- TGI [6]: > 100 µM
- TGI [7]: > 100000 nM
- GI50 [8]: 0.298 nM
- TGI [8]: 1.44 nM
- GI50 [9]: 0.526 nM
- TGI [9]: > 100000 nM
- GI50 [10]: 0.359 nM
- TGI [10]: > 100 µM
- GI50 [11]: 0.318 nM
- GI50 [12]: 0.371 nM
- TGI [12]: 34.2 µM
- GI50 [13]: 0.69 nM
- TGI [13]: > 100 µM
- GI50 [14]: 0.497 nM
- TGI [14]: > 100 µM
- GI50 [15]: 0.437 nM
- TGI [15]: > 100 µM
- GI50 [16]: 0.369 nM
- TGI [16]: > 100 µM
- TGI [17]: > 100 µM
- GI50 [18]: 0.926 nM
- TGI [18]: > 100000 nM
- GI50 [19]: 0.487 nM
- TGI [19]: > 100 µM
- GI50 [20]: 0.336 nM
- TGI [20]: > 100 µM
- GI50 [21]: 2.1 nM
- GI50 [22]: 0.524 nM
- TGI [22]: > 100 µM
- GI50 [23]: 0.829 nM
- TGI [23]: 74.9 µM
- GI50 [24]: 0.397 nM
- TGI [24]: > 100 µM
- GI50 [25]: 0.363 nM
- TGI [25]: > 100000 nM
- GI50 [26]: 5.89 µM
- TGI [26]: > 100 µM
- TGI [27]: > 100 µM
- GI50 [28]: 3.46 nM
- TGI [28]: > 100 µM
- GI50 [29]: 0.000409 µM
- TGI [29]: 7.19 µM
- GI50 [30]: 0.266 nM
- TGI [30]: 0.746 nM
- GI50 [31]: 0.36 nM
- TGI [31]: > 100000 nM
- GI50 [32]: 0.788 nM
- TGI [32]: > 100 µM
- TGI [33]: > 100 µM
- GI50 [34]: 0.361 nM
- TGI [34]: 1.51 nM
- TGI [35]: > 100 µM
- GI50 [36]: 0.208 nM
- TGI [36]: 0.484 nM
- GI50 [37]: 0.605 nM
- TGI [37]: > 100 µM
- GI50 [38]: 0.353 nM
- TGI [38]: > 100 µM
- GI50 [39]: 0.636 nM
- TGI [39]: > 100 µM
- TGI [40]: > 100 µM
- GI50 [41]: 0.432 nM
- TGI [41]: > 100 µM
- GI50 [42]: 0.376 nM
- GI50 [43]: 1.01 nM
- TGI [43]: > 100 µM
- GI50 [44]: 0.551 nM
- TGI [44]: > 100 µM
- GI50 [45]: 0.413 nM
- TGI [45]: > 100000 nM
- GI50 [46]: 49.5 µM
- TGI [46]: > 100 µM
- GI50 [47]: 0.458 nM
- TGI [47]: > 100 µM
- GI50 [48]: 0.322 nM
- TGI [48]: 1.2 nM
- TGI [49]: > 100 µM
- TGI [50]: > 100 µM
- TGI [51]: > 100000 nM
- GI50 [52]: 0.914 nM
- TGI [52]: > 100 µM
- GI50 [53]: 0.655 nM
- TGI [53]: > 100 µM
- GI50 [54]: 0.588 nM
- TGI [54]: > 100 µM

Compound: CSc1nc(-c2cccc(NC(=O)CCl)c2)c(C#N)c(=O)n1C
- GI50 [1]: 1330 nM
- TGI [1]: 2740 nM
- GI50 [2]: 1430 nM
- TGI [2]: 3.32 µM
- GI50 [3]: 1680 nM
- TGI [3]: 3.9 µM
- GI50 [4]: 2330 nM
- TGI [4]: 7.45 µM
- GI50 [5]: 1750 nM
- TGI [5]: 4.88 µM
- GI50 [6]: 1540 nM
- TGI [6]: 3.03 µM
- GI50 [7]: 1470 nM
- TGI [7]: 2820 nM
- GI50 [8]: 1470 nM
- TGI [8]: 2880 nM
- GI50 [55]: 2850 nM
- TGI [55]: 9.58 µM
- GI50 [9]: 18.4 nM
- TGI [9]: 34.2 nM
- GI50 [10]: 1280 nM
- TGI [10]: > 100 µM
- GI50 [56]: 1120 nM
- TGI [56]: 3.21 µM
- GI50 [11]: 1700 nM
- TGI [11]: 3.22 µM
- GI50 [12]: 1960 nM
- TGI [12]: 3.8 µM
- GI50 [13]: 2160 nM
- TGI [13]: 4.87 µM
- GI50 [14]: 1680 nM
- TGI [14]: 3.07 µM
- GI50 [15]: 1350 nM
- TGI [15]: 3.07 µM
- GI50 [16]: 621 nM
- TGI [16]: 4.07 µM
- GI50 [17]: 1830 nM
- TGI [17]: 3.38 µM
- GI50 [18]: 1030 nM
- TGI [18]: 2220 nM
- GI50 [19]: 1510 nM
- TGI [19]: 3.44 µM
- GI50 [20]: 1780 nM
- TGI [20]: 5.61 µM
- GI50 [21]: 1510 nM
- TGI [21]: 3.02 µM
- GI50 [22]: 2430 nM
- TGI [22]: > 100 µM
- GI50 [23]: 248 nM
- TGI [23]: 1.41 µM
- GI50 [24]: 3160 nM
- TGI [24]: 11.1 µM
- GI50 [25]: 240 nM
- TGI [25]: 2390 nM
- GI50 [26]: 1.71 µM
- TGI [26]: 4.19 µM
- GI50 [27]: 1880 nM
- TGI [27]: 3.65 µM
- GI50 [28]: 1750 nM
- TGI [28]: 3.45 µM
- GI50 [29]: 12.5 µM
- TGI [29]: 48.1 µM
- GI50 [30]: 1700 nM
- TGI [30]: 3200 nM
- GI50 [31]: 1190 nM
- TGI [31]: 2470 nM
- GI50 [33]: 2170 nM
- TGI [33]: 7.08 µM
- GI50 [34]: 1810 nM
- TGI [34]: 4880 nM
- GI50 [36]: 2060 nM
- TGI [36]: 5980 nM
- GI50 [38]: 1820 nM
- TGI [38]: 3.54 µM
- GI50 [39]: 2400 nM
- TGI [39]: 8.12 µM
- GI50 [40]: 3.65 µM
- TGI [40]: 44.3 µM
- GI50 [41]: 1500 nM
- TGI [41]: 3.73 µM
- GI50 [42]: 5510 nM
- TGI [42]: 32.9 µM
- GI50 [43]: 3050 nM
- TGI [43]: 18.1 µM
- GI50 [44]: 98.9 nM
- TGI [44]: 9.37 µM
- GI50 [45]: 1270 nM
- TGI [45]: 2880 nM
- GI50 [46]: 1.75 µM
- TGI [46]: 3.38 µM
- GI50 [57]: 1600 nM
- TGI [57]: 6.08 µM
- GI50 [47]: 1460 nM
- TGI [47]: 3.01 µM
- GI50 [48]: 1700 nM
- TGI [48]: 3940 nM
- GI50 [49]: 2380 nM
- TGI [49]: 5.53 µM
- GI50 [50]: 1770 nM
- TGI [50]: 3.44 µM
- GI50 [51]: 1170 nM
- TGI [51]: 2660 nM
- GI50 [52]: 1600 nM
- TGI [52]: 3.38 µM
- GI50 [53]: 1630 nM
- TGI [53]: 3.29 µM
- GI50 [54]: 3280 nM
- TGI [54]: 17.4 µM
